Source: patent US20250093329A1, “SCREENING OF COMPOUNDS” (THE UNIVERSITY OF TULSA, priority 2022, published 2025)
Entries after “also recorded” stand apart in the source; their conditions may differ.

What was measured:
[1] = test system: BxPC3; assay: ATP levels by CellTiter-Glo, compound alone or with metabolic inhibitor (Table 1); type: cell-based; conditions: compound 100 uM + 2DG (about 10-20 mM), DMEM + 10% FBS, two hour incubation, DMSO control
Source text: The improved method for identifying such compounds measures ATP levels as a function of light emitted by any ATP dependent luciferase or modified luciferases, i.e. luciferase derivatives. The method uses a conventional luminescent assay to determine the number of viable cells in a culture. The improvement provided by the present method results from pre-treating cells used in the assays with a metabolic inhibitor prior to treatment with the compound of interest, or switching the cells to a media formulated to force use of a specific metabolic pathway. Luminescent assays for determining cytotoxicity are well known in the art. […]
Following treatment of the control and test cells with the metabolic inhibitor (or switching to a new media), the method calls for addition of the compound to be screened for anti-cancer properties to the cells. […] Following completion of the selected time period, the ATP level within the cell is determined. ATP levels can be determined by luminescence according to standard measuring procedures, i.e. the luminescence level of the assay from the living cells treated with the two component composition is compared to the luminescence level of the assay from the living cells without the two component composition, i.e., the control experiment. […]

[2] = test system: each cell line tested; assay: ATP levels by CellTiter-Glo, all cell lines of Table 1 taken together; type: cell-based; conditions: Table 1 cell lines
Source text: A wide variety of ATP luminescing detection reagents are available commercially. So long as the reagent produces a luminescence in the presence of ATP, the reagent will be suitable for use in the present method. Suitable reagents include but are not limited to any ATP dependent luciferase such as but not limited to firefly luciferase, other modified luciferase based reagents, i.e. luciferase derivatives. According to the rapid method for determining the anti-cancer activity of a compound, a sample of living cells is distributed across a number of testing wells. Typically, 96-well plates are used; however, the number of wells is not critical to the current method. When using a 96-well plate the number of living cells will commonly be about 20,000. […] The sample wells contain a cell growth medium to promote cell health and growth and an additive to prevent bacterial contamination of the wells. One common example of the cell growth medium is DMEM with 10% FBS as described above. One example of the additive to prevent bacterial contamination is a solution of penicillin G and streptomycin referred to commonly as Pen-Strep. The Pen-Strep solution typically contains 5000 units of penicillin G and 5000 micrograms of streptomycin. Thus, the rapid determination of anti-cancer compounds can be carried out using the following method. • The desired number of cells are distributed in a 96-well plate containing 100 μL DMEM plus 10% FBS with optional Pen-Strep. • After 24 hours, cells are treated with the compound of interest or a 5% solution of dimethyl sulfoxide (DMSO) in water as a control. • The time period for exposure to the compound of interest and the DMSO control will vary depending on the luminescing detection reagent. However, when using a commercially available reagent such as resazurin (CellTiter Blue commercially available from Promega) or luciferase or a luciferase derivative (CellTiter Glo commercially available from Promega) the time period can be readily determined with reference to literature from the commercial source. Other luminescing detection agents can also be used with minimal experimentation to determine the desired compound exposure time. • Upon completion of the time period for exposure to the compound of interest or the DMSO, 10 μL of the luminescing detection reagent is added and the cells are lysed by a detergent added along with the luminescing detection reagent. • When the reagent is resazurin, as found in CellTiter-Blue the time period for exposure to the compound of interest and the DMSO will be about 24 hours. • When the reagent is luciferase or a luciferase derivative as found in CellTiter-Glo the time period for exposure to the compound of interest and the DMSO will be about 30 minutes to four hours. • The luminescing detection reagent is added over a period of time. • When using resazurin, the time period for the addition of the 10 μl volume takes place over a period of about one to four hours. • When using luciferase or a luciferase derivative, the time period is about 3 minutes to about 7 minutes, typically about 5 minutes. • During the time period of addition of the luminescing detection reagent the resulting luminescence is measured using conventional methods and devices. […] If the compound of interest deactivates the cell, then the cell produces less or no ATP. As a result, the cells in the well treated with the compound of interest will have a lower luminescence value as compared to the cells in wells treated with DMSO. • The value for the cells treated with the compound of interest is reported as a “percent of control” (POC) value. The determination of POC is calculated by dividing the averaged response from duplicate wells containing the cells as treated with the compound of interest by the average response of duplicate control wells which contain only cells and DMSO (in other words, a blank control experiment). […]

O=S(=O)(NCc1c[nH]c2ccccc12)c1ccc(Cl)cc1 [Compound 2, N-[(1H-indol-3-yl)methyl]-4-chlorobenzenesulfonamide]
percent of control (POC), ATP luminescence [1]: remarkable value; also recorded: effectiveness
reduction in luminescence (reduced ATP) across the cell lines, compound alone ([2]; 100 μM compound alone): reduction in luminescence
effectiveness across the cell lines, with 2-DG ([2]; 100 μM compound with 2-DG): effectiveness against each cell line; also recorded: remarkable effectiveness
